Source: patent publication US4001325A, “α-Chloroacetanilide selective herbicides” (Diamond Shamrock Corporation, priority 1973, dated 1977)

Legend:
[1] = system: grass species: red millet, green foxtail, Japanese millet; assay: Greenhouse preemergence herbicide test, grasses; type: in vivo, Panicum milliacem, Setaria viridis, Echinochloa frumentacea; settings: pre-emergence, 336 h, two weeks after treatment; for pest or weed control at 69.4927 g/ha: 0.062 lb/A; for pest or weed control at 140.106 g/ha: 0.125 lb/A; for pest or weed control at 280.212 g/ha: 0.25 lb/A; for pest or weed control at 560.425 g/ha: 0.5 lb/A; for pest or weed control at 1120.85 g/ha: 1.0 lb/A
Method: To illustrate the preemergence herbicidal efficiency of the alkyl-substituted 2-chloro-N-propargylacetanilides of this invention, test formulations are prepared of each compound by mixing 20 ml of an acetone solution containing 0.125 g of chemical with 20 ml of water containing 0.01 g of Triton X-155 surfactant. The resultant formulations contain 3125 ppm of test compound, 50% by volume of acetone and 0.025% by weight of surfactant. Appropriate lower concentrations are obtained by diluting this formulation with surfactant-acetone solution so that the concentration of adjuvants is maintained at the original levels.
Seeds of three broadleaf and three grass species are planted in soil contained in 10 inch × 8 inch × 3 inch aluminum pans filled with 1.5 inches of composted soil. The broadleaf species are pigweed (Amaranthus retroflexus), velvetleaf (Abutilon theophrasti), and morningglory (Ipomea coccinea); the grasses are red millet (Panicum milliacem), green foxtail (Setaria viridis) and Japanese millet (Echinochloa frumentacea).
The seeded pans are sprayed so that the soil surface is uniformly covered with dilutions of the stock formulation providing dosage rates of the test compounds as shown in the following table.
Two weeks after treatment, percent control (plant kill) at each dosage rate is estimated with results as follows: […]

Morningglory = assay: Example 17 selective herbicidal activity in corn crop, weed kill; type: in vivo, Ipomoea sp.; settings: Ipomoea, 3-4 weeks after planting; for mortality at 280.212 g/ha: 0.25 lb/A; for mortality at 560.425 g/ha: 0.5 lb/A; for mortality at 1120.85 g/ha: 1.0 lb/A; for mortality at 2241.7 g/ha: 2.0 lb/A
Description: This example illustrates the selective herbicidal activity of two of the presently preferred compounds of this invention against various weed species in a corn crop.
Plots of light sandy soil, cleared of all weeds, are uniformly treated with aqueous dispersions prepared from an emulsifiable concentrate containing 2- 4 pounds of active ingredient per gallon. Diluted aqueous dispersions are applied as surface treatments at 2.0, 1.0, 0.5, and 0.25 pound of active ingredient per acre (lb/A).
The treated test plots are sown to corn and with seeds of the following weed species:
Three to four weeks after planting, the degree of damage to both the corn stands and the weed plants is assessed from a rating of 0% (no injury) to 100% (complete destruction).

SMILES	pest or weed control at 69.4927 g/ha [1]	pest or weed control at 140.106 g/ha [1]	pest or weed control at 280.212 g/ha [1]	pest or weed control at 560.425 g/ha [1]	pest or weed control at 1120.85 g/ha [1]	mortality at 280.212 g/ha (Morningglory)	mortality at 560.425 g/ha (Morningglory)	mortality at 1120.85 g/ha (Morningglory)	mortality at 2241.7 g/ha (Morningglory)
C#CCN(C(=O)CCl)c1c(CC)cccc1CC [Example 9, 2-Chloro-2',6'-diethyl-N-propargylacetanilide]	85%	95%	95%	90%	95%	0%	0%	0%	3%
C#CCN(C(=O)CCl)c1c(C)cccc1CC [Example 15, 2-Chloro-2'-methyl-6'-ethyl-N-propargylacetanilide]	0%	70%	85%	98%	99%	0%	0%	0%	6%
